Series [1] can be described thus: refractive index (Na D-line) (dimensionless). Conditions: 101.33 kPa, Liquid, Standard Abbe refractometry.
For series [2] the following is noted: 101.33 kPa, Liquid, Vibrating tube method.

We go through 17 molecules from the NIST ThermoML archive (doi:10.1016/j.jct.2009.01.012).

The structures appear in SMILES notation. Numbers after ± are expanded uncertainties.

Consider `CCCCCCCCn1cc[n+](C)c1.O=S(=O)([N-]S(=O)(=O)C(F)(F)F)C(F)(F)F`, for which the refractive index in series [1] (293.15 K) was determined as 1.43457 ± 0.0008; in series [1] (298.15 K) it was 1.43256 ± 0.00075; in series [1] (313.15 K), 1.42854 ± 0.00075; in series [1] (333.15 K), 1.42251 ± 0.00076. For the same molecule, the mass density is on record as 1323.4 ± 2.1 kg/m3 in series [2] (293.15 K), 1318.9 ± 2.1 kg/m3 in series [2] (298.15 K), 1305.5 ± 2.1 kg/m3 in series [2] (313.15 K) and 1288 ± 2 kg/m3 in series [2] (333.15 K).
Turning to `CCCCCCCCCCCCCC[P+](CCCCCC)(CCCCCC)CCCCCC.O=S(=O)([N-]S(=O)(=O)C(F)(F)F)C(F)(F)F`, the refractive index is 1.45164 ± 0.0008 in series [1] (293.15 K), 1.44963 ± 0.00075 in series [1] (298.15 K), 1.44561 ± 0.00076 in series [1] (313.15 K) and 1.43858 ± 0.00078 in series [1] (333.15 K). Further, the mass density in series [2] (293.15 K) amounted to 1069.1 ± 2 kg/m3; in series [2] (298.15 K), 1065.4 ± 2 kg/m3; in series [2] (313.15 K), 1054.5 ± 2 kg/m3; in series [2] (333.15 K), 1039.9 ± 2 kg/m3.
On to `CCCCCCCC[n+]1ccn(C)c1.F[P-](F)(F)(F)(F)F` [1-octyl-3-methylimidazolium hexafluorophosphate], for which the refractive index stood at 1.42452 ± 0.00072 in series [1] (293.15 K), 1.42351 ± 0.00074 in series [1] (298.15 K), 1.41949 ± 0.00075 in series [1] (313.15 K) and 1.41347 ± 0.00076 in series [1] (333.15 K). Also, the mass density in series [2] (293.15 K) was 1237.8 ± 2 kg/m3; in series [2] (298.15 K), 1234 ± 2 kg/m3; in series [2] (313.15 K) it was 1222.4 ± 2 kg/m3; in series [2] (333.15 K), 1207.5 ± 2 kg/m3.
Regarding `CCCCCCn1cc[n+](C)c1.F[P-](F)(F)(F)(F)F` [1-hexyl-3-methylimidazolium hexafluorophosphate], the refractive index came out at 1.41849 ± 0.0008 in series [1] (293.15 K), 1.41648 ± 0.00073 in series [1] (298.15 K), 1.41346 ± 0.00073 in series [1] (313.15 K) and 1.40844 ± 0.00074 in series [1] (333.15 K). In addition, the mass density in series [2] (293.15 K) is given as 1296.4 ± 2 kg/m3; in series [2] (298.15 K) it was 1292.4 ± 2 kg/m3; in series [2] (313.15 K) it was 1280.4 ± 2 kg/m3; in series [2] (333.15 K), 1264.9 ± 2 kg/m3.
Take `CCCCCCCCCCn1cc[n+](C)c1.O=S(=O)([N-]S(=O)(=O)C(F)(F)F)C(F)(F)F`: the refractive index in series [1] (293.15 K) is on record as 1.43658 ± 0.00072; in series [1] (298.15 K), 1.43557 ± 0.00076; in series [1] (313.15 K), 1.43055 ± 0.00076; in series [1] (333.15 K), 1.42452 ± 0.00076. Moreover, the mass density in series [2] (293.15 K) came out at 1282.8 ± 2 kg/m3; in series [2] (298.15 K), 1278.3 ± 2 kg/m3; in series [2] (313.15 K) it was 1265.3 ± 2 kg/m3; in series [2] (333.15 K) it was 1248.2 ± 2 kg/m3.
As to `CC(=O)[O-].CCCCn1cc[n+](C)c1` [1-butyl-3-methylimidazolium acetate], the refractive index was 1.49481 ± 0.0008 in series [1] (293.15 K), 1.49381 ± 0.00083 in series [1] (298.15 K), 1.48879 ± 0.00083 in series [1] (313.15 K) and 1.48377 ± 0.00081 in series [1] (333.15 K). The mass density in series [2] (293.15 K) worked out at 1056.2 ± 2.2 kg/m3; in series [2] (298.15 K), 1053.2 ± 2.2 kg/m3; in series [2] (313.15 K), 1044 ± 2.2 kg/m3; in series [2] (333.15 K), 1032.2 ± 2.2 kg/m3.
Take `CCn1cc[n+](C)c1.O=S(=O)([N-]S(=O)(=O)C(F)(F)F)C(F)(F)F`: the refractive index in series [1] (293.15 K) amounted to 1.42351 ± 0.00072; in series [1] (298.15 K), 1.42251 ± 0.00074; in series [1] (313.15 K) it was 1.41849 ± 0.00074; in series [1] (333.15 K) it was 1.41346 ± 0.00074. The mass density in series [2] (293.15 K) stood at 1519.7 ± 2.1 kg/m3; in series [2] (298.15 K), 1514.7 ± 2.1 kg/m3; in series [2] (313.15 K) it was 1499.6 ± 2.1 kg/m3; in series [2] (333.15 K) it was 1479.7 ± 2.1 kg/m3.
For `CC(=O)[O-].CCCCCCCCCCCCCC[P+](CCCCCC)(CCCCCC)CCCCCC` [trihexyl(tetradecyl)phosphonium acetate], the refractive index turned out to be 1.48377 ± 0.00087 in series [1] (293.15 K), 1.48176 ± 0.00085 in series [1] (298.15 K), 1.47674 ± 0.00084 in series [1] (313.15 K) and 1.47072 ± 0.00083 in series [1] (333.15 K). Also, the mass density in series [2] (293.15 K) is on record as 894.5 ± 2.1 kg/m3; in series [2] (298.15 K), 891.3 ± 2.1 kg/m3; in series [2] (313.15 K) it was 882.3 ± 2.1 kg/m3; in series [2] (333.15 K) it was 870.4 ± 2.1 kg/m3.
Consider `CCCCCCCCCCCCCCn1cc[n+](C)c1.O=S(=O)([N-]S(=O)(=O)C(F)(F)F)C(F)(F)F`, for which the refractive index was 1.43456 ± 0.00076 in series [1] (313.15 K) and 1.42854 ± 0.00076 in series [1] (333.15 K). The results for the mass density in series [2] (313.15 K) and in series [2] (333.15 K) were 1200.6 ± 2 kg/m3 and 1184 ± 2 kg/m3, respectively.
For `CCCCCC[n+]1ccn(C)c1.O=S(=O)([N-]S(=O)(=O)C(F)(F)F)C(F)(F)F`, the refractive index in series [1] (293.15 K) was found to be 1.43155 ± 0.0008; in series [1] (298.15 K), 1.42954 ± 0.00075; in series [1] (313.15 K), 1.42552 ± 0.00074; in series [1] (333.15 K) it was 1.4205 ± 0.00074. The mass density in series [2] (293.15 K) is listed as 1375.5 ± 2.1 kg/m3; in series [2] (298.15 K), 1371 ± 2.1 kg/m3; in series [2] (313.15 K), 1357.2 ± 2.1 kg/m3; in series [2] (333.15 K) it was 1339.1 ± 2.1 kg/m3.
Regarding `CCCCn1cc[n+](C)c1.O=S(=O)([O-])C(F)(F)F` [1-butyl-3-methylimidazolium trifluoromethanesulfonate], the refractive index came to 1.43758 ± 0.00072 in series [1] (293.15 K), 1.43657 ± 0.00076 in series [1] (298.15 K), 1.43155 ± 0.00076 in series [1] (313.15 K) and 1.42552 ± 0.00076 in series [1] (333.15 K). For the same molecule, the mass density in series [2] (293.15 K) stood at 1303.5 ± 2 kg/m3; in series [2] (298.15 K), 1299.5 ± 2 kg/m3; in series [2] (313.15 K), 1287.7 ± 2 kg/m3; in series [2] (333.15 K), 1272.1 ± 2 kg/m3.
Turning to `CCCCn1cc[n+](C)c1.F[B-](F)(F)F` [1-butyl-3-methylimidazolium tetrafluoroborate], the refractive index is on record as 1.42251 ± 0.00072 in series [1] (293.15 K), 1.4215 ± 0.00074 in series [1] (298.15 K), 1.41748 ± 0.00074 in series [1] (313.15 K) and 1.41246 ± 0.00074 in series [1] (333.15 K). For the same molecule, the mass density came out at 1202.9 ± 2 kg/m3 in series [2] (293.15 K), 1199.4 ± 2 kg/m3 in series [2] (298.15 K), 1188.7 ± 2 kg/m3 in series [2] (313.15 K) and 1174.6 ± 2 kg/m3 in series [2] (333.15 K).
In the case of `CCCC[n+]1ccn(C)c1.O=S(=O)([N-]S(=O)(=O)C(F)(F)F)C(F)(F)F`, the refractive index worked out at 1.42853 ± 0.0008 in series [1] (293.15 K), 1.42653 ± 0.00075 in series [1] (298.15 K), 1.42251 ± 0.00075 in series [1] (313.15 K) and 1.41648 ± 0.00076 in series [1] (333.15 K). Moreover, the mass density in series [2] (293.15 K) came out at 1440.8 ± 2.1 kg/m3; in series [2] (298.15 K), 1436 ± 2.1 kg/m3; in series [2] (313.15 K), 1421.6 ± 2.1 kg/m3; in series [2] (333.15 K), 1402.6 ± 2.1 kg/m3.
Turning to `CCCCCCCCCCCCn1cc[n+](C)c1.O=S(=O)([N-]S(=O)(=O)C(F)(F)F)C(F)(F)F`, the refractive index in series [1] (293.15 K) was 1.43958 ± 0.0008; in series [1] (298.15 K), 1.43758 ± 0.00075; in series [1] (313.15 K), 1.43356 ± 0.00075; in series [1] (333.15 K), 1.42754 ± 0.00076. Also, the mass density in series [2] (293.15 K) was 1249 ± 2 kg/m3; in series [2] (298.15 K), 1244.7 ± 2 kg/m3; in series [2] (313.15 K) it was 1231.8 ± 2 kg/m3; in series [2] (333.15 K), 1215.1 ± 2 kg/m3.
Consider `CCCCCCCCCCCCCC[P+](CCCCCC)(CCCCCC)CCCCCC.O=S(=O)([O-])C(F)(F)F`, for which the refractive index is reported as 1.45967 ± 0.0008 in series [1] (293.15 K), 1.45766 ± 0.00075 in series [1] (298.15 K), 1.45365 ± 0.00076 in series [1] (313.15 K) and 1.44662 ± 0.00078 in series [1] (333.15 K). Also, the mass density in series [2] (293.15 K) is given as 985.6 ± 2 kg/m3; in series [2] (298.15 K), 982.3 ± 2 kg/m3; in series [2] (313.15 K), 972.5 ± 2 kg/m3; in series [2] (333.15 K) it was 959.6 ± 2 kg/m3.
As to `CCCCn1cc[n+](C)c1.F[P-](F)(F)(F)(F)F` [1-butyl-3-methylimidazolium hexafluorophosphate], the refractive index in series [1] (293.15 K) came to 1.41045 ± 0.0008; in series [1] (298.15 K) it was 1.40844 ± 0.00073; in series [1] (313.15 K) it was 1.40543 ± 0.00073; in series [1] (333.15 K), 1.4004 ± 0.00074. Besides, the mass density in series [2] (293.15 K) is 1367.9 ± 2.1 kg/m3; in series [2] (298.15 K), 1363.7 ± 2.1 kg/m3; in series [2] (313.15 K) it was 1351.3 ± 2.1 kg/m3; in series [2] (333.15 K), 1334.9 ± 2.1 kg/m3.
Turning to `CCCCn1cc[n+](C)c1.COS(=O)(=O)[O-]` [1-butyl-3-methylimidazolium methyl sulfate], the refractive index stood at 1.47876 ± 0.00072 in series [1] (293.15 K), 1.47775 ± 0.00072 in series [1] (298.15 K), 1.47473 ± 0.00073 in series [1] (313.15 K) and 1.46971 ± 0.00074 in series [1] (333.15 K). The mass density in series [2] (293.15 K) is given as 1214.7 ± 2 kg/m3; in series [2] (298.15 K), 1211.3 ± 2 kg/m3; in series [2] (313.15 K) it was 1201.5 ± 2 kg/m3; in series [2] (333.15 K) it was 1188.4 ± 2 kg/m3.

A word on the refractive index: it is a measure of how strongly the sample bends light. As usually defined, the mass density is the mass of a sample divided by its volume.
